Laboratory results: paper PMC9032695, “Self-Assembled Alkylated Polyamine Analogs as Supramolecular Anticancer Agents” (Molecules, 2022)
Values joined by “and” are separate entries in the source; they are usually repeats but may differ in a detail not shown here. Equal entries are not always repeated. Where two headings read alike, the source gives them in different places.

Assays:
[1] = Hydrodynamic size and zeta potential of self-assembled nanoparticles (DLS); assay type: physicochemical; conditions: self-assembled in aqueous solution; for PDI: DLS; for Particle Size: hydrodynamic size by DLS
Method: To achieve self-assembly, each sample was dispersed in aqueous solution under sonication (Branson Ultrasonic, working frequency […] at room temperature) for 30 min. Thereafter, the sample was allowed to undergo self-assembly by keeping it undisturbed for another 30 min. The size and surface zeta potential of the self-assembled nanoparticles were analyzed using a Brookhaven NanoBrook (Holtsville, NY, USA) Omni particle size and zeta potential analyzer, respectively.

[2] = test system: HCT116 cells; experiment: CellTiter-Blue cell viability assay, HCT116; assay type: cell-based; conditions: Homo sapiens, HCT-116, 24 h incubation
Method: (§1) The human non-small cell lung carcinoma cell lines A549 (ATCC CCL-185) were maintained in RPMI 1640 medium containing 9% bovine calf serum, penicillin, and streptomycin at 37 °C, 5% CO2. For all experiments, cells were seeded and allowed to attach overnight. The medium was then aspirated and replaced with that containing polyamine PG analogs at the indicated concentrations. Cells were incubated for the times indicated at 37 °C, 5% CO2. The HCT 116 (ATCC CCL-247) human colorectal carcinoma cell lines were grown in McCoy’s 5 A medium (Thermo Fischer Scientific, Waltham, MA, USA), supplemented with 10% FBS at 37 °C with 5% CO2 in a humidified chamber.
(§2) The cytotoxicity of the HPG analogs was evaluated in HCT116 and A549 cells by the Promega CellTiter Blue Cell viability assay. The cells were seeded in 96-well plates at a density of four thousand cells/well 24 h before the polyamine treatment. The original medium was replaced with serial dilutions of the PG analogs in a cell culture medium and incubated for another 24 h. The mixture of 100 μL cell culture medium and 20 μL CellTiter Blue reagent was added into each well after the removal of the media with polyamines. After 2 h of incubation, the fluorescence intensity [FI] was measured at λex/λem = 560/590 nm by a microplate reader (Molecular Devices, San Jose, CA, USA). The relative cell viability (%) was calculated as [FI]treated/[FI]untreated × 100. Polyamine concentration, causing a 50% decrease in the cell viability, was defined as IC50 and auto-calculated in GraphPad Prism 9.0.0 (Prism 9, San Diego, CA, USA) with the dose–response analysis.

[3] = test system: A549 cells; experiment: CellTiter-Blue cell viability assay, A549; assay type: cell-based; conditions: Homo sapiens, 24 h incubation
Method: as §1, §2

[4] = target: T1, purified recombinant human SMOX protein (Homo sapiens, UniProt Q9NWM0); design: method as in PMID 33173604; conditions: purified enzyme, reference inhibitor, ref [21], cited from earlier work
T1 sequence (Q9NWM0 whole entry): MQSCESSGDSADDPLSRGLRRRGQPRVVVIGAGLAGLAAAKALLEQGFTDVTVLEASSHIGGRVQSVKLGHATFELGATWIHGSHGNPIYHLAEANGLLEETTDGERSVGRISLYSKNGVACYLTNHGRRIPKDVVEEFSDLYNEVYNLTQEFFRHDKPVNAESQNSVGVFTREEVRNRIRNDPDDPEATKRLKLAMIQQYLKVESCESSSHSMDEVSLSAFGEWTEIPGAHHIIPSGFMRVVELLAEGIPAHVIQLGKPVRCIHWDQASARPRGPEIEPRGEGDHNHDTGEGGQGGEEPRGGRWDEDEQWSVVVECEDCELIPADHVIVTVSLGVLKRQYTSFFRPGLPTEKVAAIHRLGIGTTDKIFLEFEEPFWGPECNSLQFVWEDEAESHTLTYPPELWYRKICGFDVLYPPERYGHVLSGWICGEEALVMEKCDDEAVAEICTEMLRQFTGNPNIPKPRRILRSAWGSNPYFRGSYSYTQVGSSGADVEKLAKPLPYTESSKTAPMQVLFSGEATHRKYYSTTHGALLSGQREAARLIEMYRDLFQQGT

[5] = target: T1, purified recombinant human SMOX protein; experiment: SMOX activity assay (luminol-based chemiluminescence); assay type: biochemical; conditions: for IC50: purified recombinant human SMOX, pH 8.0, 37 °C; for fold activity compared to MDL72527, SMOX: ratio of IC50 values
Method: SMOX activity was measured using a chemiluminescent enzyme-based assay, detecting the formation of H2O2 in the presence of HPG analogs as the substrate, as described. To measure the activity of these polyamines against SMOX, the enzyme (300 ng) in 0.083 M glycine buffer (pH 8.0) and the inhibitor (0–250 µM) were added to the luminol-HRP master mix and incubated at 37 °C for 2 min. PG was then added to the reaction mixture at a final concentration of 250 µM, vortexed for 3 s, and chemiluminescence was integrated over 40 s. Data were averaged and normalized to the blank reaction (no inhibitor) as % SMOX activity. Inactivated SMOX served as a negative control and was accounted for in the calculations.

[6] = TEM imaging of self-assembled nanoparticles; assay type: physicochemical
Method: A 10 µL volume of nanoparticle dispersion was meticulously placed on a plasma-treated copper grid (carbon-coated). After 5 min, the excess volume of nanoparticles was absorbed by a regular filter paper. The grid was then stained with 2% phosphotungstic acid (6 µL) for 1 min, and, similarly, the excess staining solution was absorbed by a regular filter paper. The grid was then allowed to dry in air for another 5 min. The image was captured under an FEI-Tecnai G2 transmission electron microscope (Hillsboro, OR, USA) at 80 kV, equipped with an AMT digital imaging system (Woburn, MA, USA).

[7] = test system: small (NCI H82 and H69) and non-small (NCI A549 and H157) lung cancer cells; design: method as in PMID 18301893; conditions: ref [9]; cited from earlier work
[8] = test system: colon cancer cells; design: method as in PMID 19487545; conditions: ref [10]; cited from earlier work
[9] = test system: A549 xenograft; design: method as in PMID 17464296, PMID 18301893, PMID 19487545; conditions: in vivo A549 xenograft model; ref [1],[9],[10]; cited from earlier work

| SMILES | PDI [1] | Particle Size [1] | Particle Size ([1]; listed as HPG2) | Zeta Potential [1] [mV] | IC50 [2] [µM] | IC50 [3] [µM] | IC50 [5] [µM] | average size obtained from TEM [6] [nm] | IC50 [4] [µM] | IC50 ([4]; listed as MDL 72,527) [µM] | fold activity compared to MDL72527, SMOX [5] | growth inhibition of lung cancer cells in vitro [7] | anticancer activity in colon cancer cells [8] | progression of established tumors [9] |
| --- | --- | --- | --- | --- | --- | --- | --- | --- | --- | --- | --- | --- | --- | --- |
| CCCNCCCNC/C=C\CNCCCNCCC [HPG-2, (Z)-N^1,N^1′-(but-2-ene-1,4-diyl)bis(N^3-propylpropane-1,3-diamine)] | 0.21 | 173 ± 7 nm | around 173 nm | 27 | < 1 | < 1 |  |  |  |  |  |  |  |  |
| C=C=CCNCCCCNCC=C=C [MDL72527] |  |  |  |  |  |  |  |  | 90 | ~90 |  |  |  |  |
| CCCCCCNCCCNC/C=C\CNCCCNCCCCCC [HPG-5, (Z)-N^1,N^1′-(but-2-ene-1,4-diyl)bis(N^3-hexylpropane-1,3-diamine)] | 0.23 | 158 ± 4 nm |  | 16 | 8 | 7 | 90 |  |  |  |  |  |  |  |
| CCCCCNCCCNC/C=C\CNCCCNCCCCC [HPG-4, (Z)-N^1,N^1′-(but-2-ene-1,4-diyl)bis(N^3-pentylpropane-1,3-diamine)] | 0.15 | 174 nm and 174 ± 3 nm |  | 15 | > 10 | 10 |  | 6 |  |  |  |  |  |  |
| CCCCNCCCNC/C=C\CNCCCNCCCC [HPG-3, (Z)-N^1,N^1′-(but-2-ene-1,4-diyl)bis(N^3-butylpropane-1,3-diamine)] | 0.064 | 186 ± 3 nm |  | 24 | 8 | > 10 |  |  |  |  |  |  |  |  |
| CCCCCCCNCCCNC/C=C\CNCCCNCCCCCCC [HPG-6, (Z)-N^1,N^1′-(but-2-ene-1,4-diyl)bis(N^3-heptylpropane-1,3-diamine)] | 0.17 | 225 nm and 225 ± 6 nm |  | 22 | 3 | 3 | 30 | 8 |  |  |  |  |  |  |

More lines, main results first:

| PDI [1] | Particle Size [1] | Particle Size ([1]; listed as HPG2) | Zeta Potential [1] [mV] | IC50 [2] [µM] | IC50 [3] [µM] | IC50 [5] [µM] | average size obtained from TEM [6] [nm] | SMILES | IC50 [4] [µM] | IC50 ([4]; listed as MDL 72,527) [µM] | fold activity compared to MDL72527, SMOX [5] | growth inhibition of lung cancer cells in vitro [7] | anticancer activity in colon cancer cells [8] | progression of established tumors [9] |
| --- | --- | --- | --- | --- | --- | --- | --- | --- | --- | --- | --- | --- | --- | --- |
| 0.17 |  |  | 17 | < 1 | 7 | < 10 |  | CCCCCCCCCNCCCNC/C=C\CNCCCNCCCCCCCCC [HPG-8, (Z)-N^1,N^1′-(but-2-ene-1,4-diyl)bis(N^3-nonylpropane-1,3-diamine)] |  |  | around nine-fold more active than MDL 72,527 |  |  |  |
|  |  |  |  | 8 | > 10 |  |  | CCNCCCNC/C=C\CNCCCNCC [PG11047, (Z)-N^1,N^1′-(but-2-ene-1,4-diyl)bis(N^3-ethylpropane-1,3-diamine)] |  |  |  | inhibits the growth | broad spectrum of anticancer activity | significantly delay the progression of established tumors |
| 0.13 | 318 ± 8 nm |  | 11 | 1 | < 1 | < 10 | 30 | CCCCCCCCNCCCNC/C=C\CNCCCNCCCCCCCC [HPG-7, (Z)-N^1,N^1′-(but-2-ene-1,4-diyl)bis(N^3-octylpropane-1,3-diamine)] |  |  | around nine-fold more active than MDL 72,527 |  |  |  |
